Measured values from paper PMC10455244, “Alpha-Mangostin: A Potent Inhibitor of TRPV3 and Pro-Inflammatory Cytokine Secretion in Keratinocytes” (International Journal of Molecular Sciences, 2023).

Target: T1, TRPV3 (Homo sapiens, UniProt Q8NET8)
T1 sequence (Q8NET8 1-790): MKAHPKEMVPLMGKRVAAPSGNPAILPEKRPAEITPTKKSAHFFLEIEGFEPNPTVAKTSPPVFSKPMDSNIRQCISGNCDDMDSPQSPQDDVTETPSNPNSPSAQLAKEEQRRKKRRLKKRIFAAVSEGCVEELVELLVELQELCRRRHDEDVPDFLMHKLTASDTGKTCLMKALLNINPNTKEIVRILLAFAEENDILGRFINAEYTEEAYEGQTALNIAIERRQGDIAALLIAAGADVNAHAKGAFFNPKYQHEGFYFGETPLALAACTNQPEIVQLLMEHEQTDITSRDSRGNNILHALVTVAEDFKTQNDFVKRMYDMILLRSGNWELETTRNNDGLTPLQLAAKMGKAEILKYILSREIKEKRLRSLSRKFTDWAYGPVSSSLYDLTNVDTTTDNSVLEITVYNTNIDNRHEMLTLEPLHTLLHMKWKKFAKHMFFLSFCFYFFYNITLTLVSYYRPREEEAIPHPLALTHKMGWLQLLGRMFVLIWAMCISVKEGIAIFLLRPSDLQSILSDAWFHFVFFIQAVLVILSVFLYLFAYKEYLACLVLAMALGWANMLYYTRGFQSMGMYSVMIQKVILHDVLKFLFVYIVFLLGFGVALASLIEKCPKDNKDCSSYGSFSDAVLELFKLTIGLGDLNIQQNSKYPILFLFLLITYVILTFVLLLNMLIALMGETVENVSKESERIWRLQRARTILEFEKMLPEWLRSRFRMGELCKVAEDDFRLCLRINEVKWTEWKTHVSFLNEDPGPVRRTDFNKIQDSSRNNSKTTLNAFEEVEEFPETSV
Test: Fura-2 calcium imaging, carvacrol-induced Ca2+ increase in NHEK
Assay type: cell-based
Design: host or cells: NHEK
Settings: 300 µM carvacrol, keratinocytes (NHEK), control 0.029 ± 0.003
Protocol: Since the TRPV3-mediated calcium influx is reported to contribute to proper skin function, we investigated whether alpha-mangostin inhibits the intracellular calcium increase induced by carvacrol in hTRPV3-overexpressing HEK 293T cells and keratinocytes. […] In hTRPV3-overexpressing HEK 293T cells, ∆(F340/F380) decreased by approximately 25% and 70% upon exposure to 0.3 µM and 3 µM alpha-mangostin, respectively (Figure 3A, 0.424 ± 0.032 vs. 0.316 ± 0.030 and 0.144 ± 0.006, respectively).
Figure 3 Alpha-mangostin (α-MG) inhibited TRPV3-mediated intracellular calcium increase. Cells were perfused with solutions containing 0.3 µM, 3 µM alpha-mangostin or 10 µM 74a before the addition of 300 µM carvacrol (red, green, and blue lines, respectively). […]
Fura-2 AM (Thermo Fisher Scientific) was utilized as a fluorescent indicator to measure calcium signal, as described previously. […] To measure the cytosolic Ca^2+ level, a sequential excitation of Fura-2 is performed at 340 nm and 380 nm; then, the emission signals resulting from each excitation wavelength are measured and the ratio of these signals is calculated. […] Samples were excited using a wavelength of 380 nm for 20 ms, followed by 340 nm for 100 ms, and fluorescence at 510 nm was recorded. Recorded data were then analyzed using NIS-Element AR Version 5.00.00 (Nikon Instruments, Melville, NY, USA). […]

## COc1c(O)cc2oc3cc(O)c(CC=C(C)C)c(O)c3c(=O)c2c1CC=C(C)C [Alpha-mangostin]
0.3 µM
  Change in F340/F380: 0.019 ± 0.002
3 µM
  Change in F340/F380: 0.010 ± 0.002
